Data set [1] relates to HT29 (colonic carcinoma) cells. Kind of data set: Tumor cell uptake in HT29 cells. Format: cell-based, human. As to conditions: compared to [^18F]FDG. The protocol: (§1) For the evaluation of the tumor cell uptake of [^18F]glutamic acid, cell uptake experiments were carried out in human A549 (non-small-cell bronchial carcinoma) and HT29 (colonic carcinoma) cells. The tumor cell uptake of the glutamic acid derivatives was compared to
(§2) [^18F]FDG (gold standard for oncological PET investigations).

For data set [2], the system named is A549 (non-small-cell bronchial carcinoma) cells. As to the kind of experiment: Tumor cell uptake in A549 cells. Format: cell-based, human. As to conditions: 250 kBq/well, compared to [^18F]FDG. As for the experimental part: as §1, §2
FIG. 2: Comparison of the time-dependent tumor cell uptake of [^18F]-4-glutamic acid [20-35 μM] (on the left) and [F-18]FDG [2 μM] (on the right) in A549 cells. The cells were incubated with 250 kBq/well. For displacement experiments, L-glutamic acid (1 mM) or glucose (5 mM) was used (mean value±standard deviation, n=3).

Data set [3] has as its system murine F9 teratocarcinoma model in NMRI nude mice. Kind of data set: Tumor enrichment and tissue distribution, F9 teratocarcinoma model. As to conditions: for Tumor/tissue quotient, Liver: single i.v. The protocol:
(§3) For the evaluation of the tumor enrichment and the tissue distribution in experimental animals, [^18F]-4-glutamic acid was tested in a murine F9 teratocarcinoma model in NMRI nude mice and a murine B16F1 melanoma model in C57BI6 mice.
For this, 1×10^6 cells (F9) or 5×10^5 cells (B16F1) respectively were suspended in 100 μl of phosphate-buffered physiological saline solution and inoculated subcutaneously into the right, rear flank of the corresponding experimental animal species (NMRI for F9 and 057-BI6 for B16F1) (Berndorff et al. Clin. Cancer Res. 2005, 11, 2005). […] [^18F]-4-Glutamic acid (370 kBq, in 100 μl of physiological saline solution) was administered intravenously to the tail vein. […]

In data set [4] the test system is murine B16F1 melanoma model in C57BI6 mice. As to the kind of experiment: Tumor enrichment and tissue distribution, B16F1 melanoma model. As to conditions: for Tumor/tissue quotient, Ovary: single i.v.; for Tissue uptake, Brain: single i.v. 111 kBq. As for the experimental part: as §3
For this, 1×10^6 cells (F9) or 5×10^5 cells (B16F1) respectively were suspended in 100 μl of phosphate-buffered physiological saline solution and inoculated subcutaneously into the right, rear flank of the corresponding experimental animal species (NMRI for F9 and 057-BI6 for B16F1) (Berndorff et al. Clin. Cancer Res. 2005, 11, 2005). […] [^18F]-4-Glutamic acid (370 kBq, in 100 μl of physiological saline solution) was administered intravenously to the tail vein. After 15; 60 and 120 min in each case, the animals were killed, organ and tumor removed, weighed and measured for radioactive content.

`NC(CC(OCC[18F])C(=O)O)C(=O)O` (centres unmarked) [2-amino-4-(2-[F-18]fluoroethoxy)pentanedicarboxylic acid]: the tumor cell uptake entry in data set [1] and in data set [2] was “Analogous uptake results” in each case.

In the case of `N[C@@H](CC[14C](=O)O)C(=O)O` [[^14C]5-glutamic acid, reference compound], the results for the “Tumor/tissue quotient, Liver” value in data set [3] (1.0 h (times as Table 5)) and in data set [3] (4.0 h (times as Table 5)) were 1.31 and 1.09, respectively. In addition, the tumor enrichment is recorded as 0.98 % ID/g in data set [3] (F9 teratocarcinoma, 1 h after intravenous administration) and 1.03 % ID/g in data set [4] (B16F1 melanoma, 1 h after intravenous administration). Moreover, the maximal tumor enrichment is listed as 0.81 % ID/g in data set [3] (F9 teratocarcinoma, similarly early time (30 min)) and 1.23 in data set [4] (B16F1 melanoma, "at the same time"). In addition, the results for the “Tumor/tissue quotient, Ovary” value in data set [4] (0.25 h (times as Table 7)) and in data set [4] (1.0 h (times as Table 7)) were 0.47 and 1.01, respectively. Further, the “Tissue uptake, Brain” value is 0.22 % dose/g in data set [4] (0.25 h), 0.13 % dose/g in data set [4] (1.0 h) and 0.09 % dose/g in data set [4] (2.0 h).

Take `NC(CC(CCC[18F])C(=O)O)C(=O)O` (centres unmarked) [2-amino-4-(3-[F-18]fluoropropyl)pentanedicarboxylic acid]: the tumor cell uptake entry in data set [1] and in data set [2] was “Analogous uptake results” each time.

On to `NC(=O)C([18F])CC(N)C(=O)O` (centres unmarked) [[^18F]-4-glutamine, 2-amino-4-[F-18]fluoroglutamine], for which the tumor cell uptake entry in data set [1] and in data set [2] was “Analogous uptake results” throughout.

The values are drawn from patent publication US9375497B2, “[F-18]-labeled L-glutamic acid, [F-18]-labeled L-glutamine, derivatives thereof and use thereof and processes for their preparation” (BAYER SCHERING PHARMA AKTIENGESELLSCHAFT, priority 2006, dated 2016).
